Source: patent US20230287021A1, “COMPOUNDS, COMPOSITIONS AND METHODS FOR STABILIZING TRANSTHYRETIN AND INHIBITING TRANSTHYRETIN MISFOLDING” (Protego Biopharma, Inc., priority 2020, published 2023)
Where a name gives a salt, the structure may show the parent alone.

Legend:
[1] = In vitro rat plasma stability assay, formation of tafamidis; type: in vitro ADME; conditions: 37° C., 2 µM test compound
Procedure: A stability assay in plasma (rat or human) was used to evaluate the ability of a compound provided herein to convert to an active TTR stabilizer. The test compound was added to plasma and incubated at 37° C. in a water bath at a concentration of 2 µM. At each time point (0, 10, 30, 60 and 120 min or 0, 60, 120, 180 and 240 min), stop solution (tolbutamide plus labetalol) was added to precipitate protein and mixed thoroughly. After centrifugation, an aliquot of supernatant was analyzed by LC-MS/MS. The percentage of formation of active agent was calculated at each time point.

[2] = In vitro rat liver S9 stability assay, formation of tafamidis; type: in vitro ADME; conditions: rat liver S9, 37° C., 1 µM test compound
Procedure: The test compound was added to liver S9 and incubated at 37° C. in a water bath at a concentration of 1 µM. At each time point (0, 5, 10, 20, 30 and 60 min), stop solution (tolbutamide plus labetalol) was added to precipitate protein and mixed thoroughly. After centrifugation, an aliquot of supernatant was analyzed by LC-MS/MS. The percentage of formation of active agent was calculated at each time point.

Row | SMILES | Formation of tafamidis at 120 min [1] | Formation of tafamidis at 60 min [2]
1 | N#CCCN1CCC(OC(=O)c2ccc3nc(-c4cc(Cl)cc(Cl)c4)oc3c2)C1 (centres unmarked) [Compound 179] | B (B is ≥25 to <50%) | C (C is ≥50 to <75%)
2 | CN1CCCC1COC(=O)c1ccc2nc(-c3cc(Cl)cc(Cl)c3)oc2c1 (centres unmarked) [Compound 61, (1-methylpyrrolidin-2-yl)methyl 2-(3,5-dichlorophenyl)benzo [d] oxazole-6-carboxylate] | D (D is ≥75%) | C (C is ≥50 to <75%)
3 | CC(C)(C)OC(=O)N1CC2CCC1CC2OC(=O)c1ccc2nc(-c3cc(Cl)cc(Cl)c3)oc2c1 (centres unmarked) [Compound 26, 2-(tert-butoxycarbonyl)-2-azabicyclo[2.2.2]octan-5-yl 2-(3,5-dichlorophenyl) benzo [d] oxazole-6-carboxylate] | A (A is <25%) | A (A is <25%)
4 | O=C(OCc1ncc[nH]1)c1ccc2nc(-c3cc(Cl)cc(Cl)c3)oc2c1 [Compound 89] | C (C is ≥50 to <75%) | D (D is ≥75%)
5 | O=C(OCCn1ccnc1)c1ccc2nc(-c3cc(Cl)cc(Cl)c3)oc2c1 [Compound 99] | B (B is ≥25 to <50%) | D (D is ≥75%)
6 | CN1CC2CCC1CC2OC(=O)c1ccc2nc(-c3cc(Cl)cc(Cl)c3)oc2c1 (centres unmarked) [Compound 32, 2-methyl-2-azabicyclo[2.2.2]octan-5-yl 2-(3,5-dichlorophenyl) benzo [d]oxazole-6-carboxylate] | A (A is <25%) | A (A is <25%)
7 | CC1CCC(OC(=O)c2ccc3nc(-c4cc(Cl)cc(Cl)c4)oc3c2)C1 (centres unmarked) [Compound 185] | A (A is <25%) | B (B is ≥25 to <50%)
8 | O=C(OC1CCN2CCCC12)c1ccc2nc(-c3cc(Cl)cc(Cl)c3)oc2c1 (centres unmarked) [Compound 180, Hexahydro-1H-pyrrolizin-1-yl 2-(3,5-dichlorophenyl)benzo[d]oxazole-6-carboxylate] | B (B is ≥25 to <50%) | A (A is <25%)
9 | Cn1ccnc1COC(=O)c1ccc2nc(-c3cc(Cl)cc(Cl)c3)oc2c1 [Compound 98] | C (C is ≥50 to <75%) | D (D is ≥75%)
10 | O=C(OC1CC2CCC1CN2)c1ccc2nc(-c3cc(Cl)cc(Cl)c3)oc2c1 (centres unmarked) [Compound 27, 2-azabicyclo[2.2.2]octan-5-yl 2-(3,5-dichlorophenyl)benzo [d]oxazole-6-carboxylate hydrochloride] | A (A is <25%) | A (A is <25%)
11 | O=C(OCc1ccccn1)c1ccc2nc(-c3cc(Cl)cc(Cl)c3)oc2c1 [Compound 103] | B (B is ≥25 to <50%) | D (D is ≥75%)
12 | O=C(OCCN1CCCCC1)c1ccc2nc(-c3cc(Cl)cc(Cl)c3)oc2c1 [Compound 34, 2-(piperidin-1-yl)ethyl 2-(3,5-dichlorophenyl)benzo[d] oxazole-6-carboxylate] | A (A is <25%) | C (C is ≥50 to <75%)
13 | O=C(OC1CCNC1)c1ccc2nc(-c3cc(Cl)cc(Cl)c3)oc2c1 (centres unmarked) [Compound 17, pyrrolidin-3-yl 2-(3,5-dichlorophenyl)benzo[d]oxazole-6-carboxylate hydrochloride] | A (A is <25%) | A (A is <25%)
14 | CC(C)(C)N1CCC(OC(=O)c2ccc3nc(-c4cc(Cl)cc(Cl)c4)oc3c2)C1 (centres unmarked) [Compound 92] | B (B is ≥25 to <50%) | A (A is <25%)
15 | O=C(OCC1CCCO1)c1ccc2nc(-c3cc(Cl)cc(Cl)c3)oc2c1 (centres unmarked) [Compound 86] | D (D is ≥75%) | D (D is ≥75%)
16 | N#CCN1CCC(OC(=O)c2ccc3nc(-c4cc(Cl)cc(Cl)c4)oc3c2)C1 (centres unmarked) [Compound 176] | C (C is ≥50 to <75%) | D (D is ≥75%)
17 | O=C(OCCN1CCOCC1)c1ccc2nc(-c3cc(Cl)cc(Cl)c3)oc2c1 [Compound 80] | B (B is ≥25 to <50%) | D (D is ≥75%)
18 | Cn1ccnc1CCOC(=O)c1ccc2nc(-c3cc(Cl)cc(Cl)c3)oc2c1 [Compound 177] | D (D is ≥75%) | D (D is ≥75%)
19 | O=C(OC1CCc2nccn2C1)c1ccc2nc(-c3cc(Cl)cc(Cl)c3)oc2c1 (centres unmarked) [Compound 157, 5,6,7,8-tetrahydroimidazo[1,2-a]pyridin-6-yl 2-(3,5-dichlorophenyl)benzo[d]oxazole-6-carboxylate hydrochloride] | B (B is ≥25 to <50%) | A (A is <25%)
20 | CN1CC(OC(=O)c2ccc3nc(-c4cc(Cl)cc(Cl)c4)oc3c2)C(F)(F)C1 (centres unmarked) [Compound 175] | D (D is ≥75%) | D (D is ≥75%)
21 | O=C(OCCCN1CCNCC1)c1ccc2nc(-c3cc(Cl)cc(Cl)c3)oc2c1 [Compound 83] | D (D is ≥75%) | 
22 | C[C@H](COC(=O)c1ccc2nc(-c3cc(Cl)cc(Cl)c3)oc2c1)N(C)C [Compound 45, (R)-2-(dimethylamino)propyl 2-(3,5-dichlorophenyl)benzo[d] oxazole-6-carboxylate] | C (C is ≥50 to <75%) | 
23 | CC(C)(C)OC(=O)N[C@@H](Cc1cccc(OC(=O)c2ccc3nc(-c4cc(Cl)cc(Cl)c4)oc3c2)c1)C(=O)O [Compound 20, (S)-2-((tert-butoxycarbonyl)amino)-3-(3-((2-(3,5-dichlorophenyl)benzo [d]oxazole-6-carbonyl)oxy)phenyl)propanoic acid] | B (B is ≥25 to <50%) | 
24 | N[C@H](Cc1ccc(OC(=O)c2ccc3nc(-c4cc(Cl)cc(Cl)c4)oc3c2)cc1)C(=O)O [Compound 71] | A (A is <25%) | 
25 | CC(CCn1ccnc1)OC(=O)c1ccc2nc(-c3cc(Cl)cc(Cl)c3)oc2c1 (centres unmarked) [Compound 178, 4-(1H-imidazol-1-yl)butan-2-yl 2-(3,5-dichlorophenyl)-benzo [d] oxazole-6-carboxylate] | C (C is ≥50 to <75%) | C (C is ≥50 to <75%)
26 | CC(C)(C)OC(=O)N[C@H](Cc1cccc(OC(=O)c2ccc3nc(-c4cc(Cl)cc(Cl)c4)oc3c2)c1)C(=O)OCc1ccccc1 [Compound 63] | B (B is ≥25 to <50%) | 
27 | O=C(OCCC1CCOC1)c1ccc2nc(-c3cc(Cl)cc(Cl)c3)oc2c1 (centres unmarked) [Compound 96, 2-(tetrahydrofuran-3-yl)ethyl 2-(3,5-dichlorophenyl)benzo[d] oxazole-6-carboxylate] | C (C is ≥50 to <75%) | 
28 | CCNC(=O)c1ccc2nc(-c3cc(Cl)cc(Cl)c3)oc2c1 [Compound 183] | A (A is <25%) | A (A is <25%)
